In brackets after ≈: the same amount, converted by molar mass. Read-outs that look alike come from different tables or passages of the source.
What was measured:
[1] = tested on: nasopharyngeal carcinoma cell line (KB); assay: Neutral red cytotoxicity assay, KB; format: cell-based, human; conditions: extracts, 72 h, mean ± SD of three replicates
Method: (§1) The human cancer cells KB, Ca Ski, MCF-7, HCT-116, A549, and noncancer human cell lines (MRC-5) were purchased from the American Tissue Culture Collection (ATCC, USA). The supplemented RPMI 1640 media and eagle minimum essential medium (EMEM) were purchased from Sigma-Aldrich, USA. The supplements or antibiotics such as foetal bovine serum (FBS), penicillin/streptomycin (P/S) (100 μg/mL), amphotericin B (50 μg/mL), and accutase were purchased from PAA Laboratories, Austria. Sodium pyruvate (11 mg/mL) purchased from Sigma-Aldrich, USA. […] Microtiter plate incubator shaker (LT Biomax 500) was used and absorbance was measured at 540 nm using an ELISA microplate reader (EMax microplate reader of Molecular Devices, USA). […]
(§2) The in vitro cytotoxicity activity was performed using the neutral red cytotoxicity assay based on the initial protocol as described earlier with some modifications. […] The density of the viable cells was counted by 0.4% of trypan blue exclusion in a haemocytometer. […] The optical density (OD) of the eluted dye was read at 540 nm using a microplate reader. […] Cytotoxicity of each test agent is expressed as IC50 value. […]

[2] = tested on: cervical carcinoma cell line (Ca Ski); assay: cells; format: cell-based; conditions: Homo sapiens, 72 h, neutral red, mean ± SD of three replicates, read-out: IC50 (μg/mL) Ca Ski
Method: (§3) The human cancer cells KB, Ca Ski, MCF-7, HCT-116, A549, and noncancer human cell lines (MRC-5) were purchased from the American Tissue Culture Collection (ATCC, USA). The supplemented RPMI 1640 media and eagle minimum essential medium (EMEM) were purchased from Sigma-Aldrich, USA. The supplements or antibiotics such as foetal bovine serum (FBS), penicillin/streptomycin (P/S) (100 μg/mL), amphotericin B (50 μg/mL), and accutase were purchased from PAA Laboratories, Austria. Sodium pyruvate (11 mg/mL) purchased from Sigma-Aldrich, USA. The cells were cultured in a SHEL LAB water-jacketed CO2 incubator with […] tissue culture flasks (Nunc, Denmark), which was observed routinely under inverted microscope (Leica DMI3000 B, Germany) for any contamination and seeded into 96-well flat bottom microtiter plate (Nunc, Denmark). The extract or pure compounds was dissolved in dimethyl sulfoxide (DMSO, Molecular Biology Grade, >99.9%) from Sigma-Aldrich, USA. Microtiter plate incubator shaker (LT Biomax 500) was used and absorbance was measured at 540 nm using an ELISA microplate reader (EMax microplate reader of Molecular Devices, USA). MCF-7 and Ca Ski were cultured in RPMI 1640 media supplemented with 10% v/v FBS, P/S, and amphotericin B and MRC-5 in EMEM media with 10% v/v FBS, P/S, amphotericin B, and sodium pyruvate. The cells were cultured in tissue culture flask in 5% CO2 incubator kept at 37°C in a humidified atmosphere and observed routinely under inverted microscope from any contaminations. Each fresh medium was replaced every 2 or 3 days until cell confluence was achieved and the cells were detached by using accutase.
(§4) The in vitro cytotoxicity activity was performed using the neutral red cytotoxicity assay based on the initial protocol as described earlier with some modifications. Briefly, cells were detached from the tissue culture flask with 1.0 mL solution of accutase and PBS solution. The cell pellet was obtained by centrifugation at 1,000 rpm for 5 minutes. The density of the viable cells was counted by 0.4% of trypan blue exclusion in a haemocytometer. Cells were then plated in 96-well microtiter plate (Nunc), at a concentration of 1 × 10^4 cells/well and incubated in a CO2 incubator at 37°C to allow the cells to adhere. After 24 h, the cells were treated with six different concentrations, that is, 1, 10, 25, 50, 75, and 100 μg/mL of each tested agent in three replicates. The plates were incubated for 72 h at 37°C in a 5% CO2 incubator. The untreated cells were regarded as a negative control, whilst cells incubated only with DMSO (0.5%, v/v) were used as a vehicle control. No effect due to the DMSO was observed. Doxorubicin was used as the positive control. After 72 h, the old medium was substituted with fresh medium containing 50 μg/mL neutral red. The 96-well plates were placed into incubator for 3 h. This is to allow the uptake of the vital dye into the lysosomes of viable and undamaged cells. Then, the media was discarded and cells were washed with 200 μL of neutral red washing solution. The dye was eluted from the cells by adding neutral red resorb solution (200 μL). The plate was further incubated for 30 min with rapid agitation on a microtiter plate shaker. The optical density (OD) of the eluted dye was read at 540 nm using a microplate reader. The experiments were conducted in triplicates. The percentage of inhibition of each of the test samples was calculated according to the following formula using the OD values obtained: percentage of inhibition (%) = (OD control − OD sample)/OD control × 100%. The average of three replicates was then obtained. Cytotoxicity of each test agent is expressed as IC50 value. The IC50 value is the concentration of test agents that cause 50% inhibition or cell death, averaged from the three experiments. The IC50 for each extract was extrapolated from the graphs of the percentage inhibition versus concentration of test agents.

[3] = tested on: hormone-dependent breast cancer cell line (MCF-7); assay: cells; format: cell-based; conditions: Homo sapiens, MCF7, 72 h, neutral red, mean ± SD of three replicates, read-out: IC50 (μg/mL) MCF-7
Method: as §3, §4

[4] = tested on: colon carcinoma cell line (HCT-116); assay: Neutral red cytotoxicity assay, HCT-116; format: cell-based; conditions: Homo sapiens, 72 h, mean ± SD of three replicates, read-out: IC50 (μg/mL) HCT-116
Method: as §3
as §4, with “The percentage of inhibition of each of the test samples was calculated according to the following formula using the OD values obtained: percentage of inhibition (%) = (OD control − OD sample)/OD control × 100%. The average of three replicates was then obtained.” left out, “The IC50 value is the concentration of test agents that cause 50% inhibition or cell death, averaged from the three experiments. The IC50 for each extract was extrapolated from the graphs of the percentage inhibition versus concentration of test agents.” left out

[5] = tested on: lung carcinoma cell line (A549); assay: Neutral red cytotoxicity assay, A549; format: cell-based; conditions: Homo sapiens, extracts, 72 h, mean ± SD of three replicates, read-out: IC50 (μg/mL) A549
Method: as §1, §2

[6] = tested on: noncancer human lung fibroblast cell line (MRC-5); assay: Neutral red cytotoxicity assay, MRC-5; format: cell-based; conditions: 72 h, mean ± SD of three replicates, read-out: IC50 (μg/mL) MRC-5
Method: as §3
as §4, with “The percentage of inhibition of each of the test samples was calculated according to the following formula using the OD values obtained: percentage of inhibition (%) = (OD control − OD sample)/OD control × 100%. The average of three replicates was then obtained.” left out, “The IC50 value is the concentration of test agents that cause 50% inhibition or cell death, averaged from the three experiments. The IC50 for each extract was extrapolated from the graphs of the percentage inhibition versus concentration of test agents.” left out

[7] = tested on: cervical carcinoma cell line (Ca Ski); design: method as in PMID 19471192; conditions: reported previously, ref [21]; cited from earlier work
[8] = tested on: hormone-dependent breast cancer cell line (MCF-7); design: method as in PMID 19471192; conditions: MCF-7, reported previously, ref [21]; cited from earlier work
[9] = tested on: colon carcinoma cell line (HCT-116); design: method as in PMID 19471192; conditions: HCT-116, reported previously, ref [21]; cited from earlier work

## COc1cccc2c1C(=O)c1c(O)c3c(c(O)c1C2=O)C[C@@](O)(C(=O)CO)C[C@@H]3O[C@H]1C[C@H](N)[C@H](O)[C@H](C)O1 [Doxorubicin, reference compound]
[1]
  IC50 (μg/mL) KB: 0.27 ± 0.01 µg/mL (≈ 0.497 µM)
[2]; extracts
  IC50: 0.18 ± 0.06 µg/mL (≈ 0.331 µM)
[3]; extracts
  IC50: 0.05 ± 0.01 µg/mL (≈ 0.092 µM)
[4]; extracts
  IC50: 0.24 ± 0.04 µg/mL (≈ 0.442 µM)
[5]
  IC50: 0.58 ± 0.01 µg/mL (≈ 1.07 µM)
[6]; MRC5, extracts
  IC50: 0.4 ± 0.03 µg/mL (≈ 0.736 µM)

## C/C1=C\CC[C@H](C)C(=O)C[C@H](C(C)C)C(=O)C1 [Neocurdione (2), neocurdione]
[2]; isolated compounds
  IC50: 46.2 ± 1.1 µg/mL (≈ 195 µM)
[3]; isolated compounds
  IC50: 53.5 ± 1.1 µg/mL (≈ 226 µM)
[4]; isolated compounds
  IC50: 64 ± 1.3 µg/mL (≈ 271 µM)
[6]; MRC5, isolated compounds
  IC50: 59 ± 0.4 µg/mL (≈ 250 µM)

## C/C1=C\CC[C@@]2(C)O[C@@H]2C(=O)c2c(C)coc2C1 [Zederone (5), zederone]
[2]; isolated compounds
  IC50: > 100 µg/mL
[3]; isolated compounds
  IC50: > 100 µg/mL
[4]; isolated compounds
  IC50: > 100 µg/mL
[6]; MRC5, isolated compounds
  IC50: > 100 µg/mL

## CC[C@H](CC[C@@H](C)[C@H]1CC[C@H]2[C@@H]3CC=C4C[C@@H](O)CC[C@]4(C)[C@H]3CC[C@]12C)C(C)C [β-sitosterol (8), β-sitosterol]
[7]
  cytotoxicity (in words): low cytotoxicity
[8]
  cytotoxicity (in words): low cytotoxicity
[9]
  cytotoxicity (in words): low cytotoxicity
